Measurements taken from EP4596561A1, “PHOSPHORUS-CONTAINING COMPOUND, PHARMACEUTICAL COMPOSITION AND USE THEREOF” (Suzhou Genhouse Bio Co., Ltd., priority 2022, dated 2024).
Read-outs that look alike come from different tables or passages of the source.

Legend:
[1] = tested on: YAP-TEAD transcription complex; assay: YAP-TEAD reporter gene assay (dual luciferase, stably transfected 293T cells); type: cell-based; details: Homo sapiens, HEK-293T
Method: YAP-TEAD reporter gene The YAP-TEAD reporter gene assay was performed as follows. Firstly, the 8xGTIIC promoter sequence ([…] GTACTGTTGGTAAA) was constructed into a pGL4.20(luc2-Puro) plasmid, and the TK promoter ([…]) unrelated to the hippo pathway was constructed into a pGL4.78(hRlucCP/Hygro) plasmid, thereby constructing stably transfected 293T cells that can stably and continuously express the transcriptional activity of the YAP-TEAD transcription complex. After selection and identification of individual clones, the clones were grown and maintained in a DMEM medium containing 10% fetal bovine serum, penicillin-streptomycin solution, 1 µg/mL puromycin, and 150 µg/mL hygromycin. To perform reporter gene assays with the compounds to be tested, the well-growing cells described above were plated in a 384-well plate at a cell density of 3000 cells per well, with 90 µL per well. The periphery was sealed with an appropriate amount of PBS to prevent evaporation of water from the peripheral wells. Administration was performed on the next day after the cell plating. The test compounds were added at different concentration gradients, and three replicate wells were set for each concentration point. The compound concentration started at 5 µM and was diluted seven times with a 5-fold gradient. A corresponding negative control group treated with DMSO was also set up. After 24 h of drug treatment, the detection reagents were prepared first. The Dual-Lumi™ Firefly luciferase detection reagent and Dual-Lumi™ Renilla luciferase detection buffer were dissolved and brought to room temperature. […]. According to the amount of 100 µL of Dual-Lumi™ Renilla luciferase detection working solution required for the detection of each sample, an appropriate amount of Dual-Lumi™ Renilla luciferase detection working solution was prepared. […]. The cell culture plate was taken out and allowed to equilibrate at room temperature for 10 min (usually no more than 30 min). Then, 100 µL of Dual-Lumi™ Firefly luciferase detection reagent was added to each well of a 96-well plate (25 µL per well for the 384-well plate), and the mixture was mixed well. The mixture was then incubated at room temperature (about 25 °C) for 10 min to stabilize the luminescent signal, and then chemiluminescence was detected using a multimode microplate reader with a chemiluminescence detection function. Subsequently, the detection of Renilla luciferase began. Firstly, 100 µL of Dual-Lumi™ Renilla luciferase detection working solution was added to each well of a […] (25 µL per well for the 384-well plate), and the mixture was mixed well. The mixture was then incubated at room temperature (about 25 °C) for 10 min to stabilize the luminescent signal. Finally, chemiluminescence was detected using a multimode microplate reader with a chemiluminescence detection function. The obtained data were analyzed using GraphPad Prism 7.0 software. A sigmoidal dose-survival rate curve was plotted using a non-linear regression model, and the IC50 values were calculated.

[2] = Pharmacokinetic test in mice (low dose); type: in vivo, Balb/c mice; details: Balb/c, mouse, in vivo
Method: The compounds of the present disclosure were administered to Balb/c mice by single intravenous injection and oral gavage, and the plasma of the mice at each time point was collected. The concentration of the compounds to be tested in BALB/C plasma was detected using the LC-MS/MS analysis method, and pharmacokinetic analysis was performed.
The mixture was vortexed, shaken, and ultrasonicated. The remaining volume of 25% sulfobutylether-β-cyclodextrin (sterilized) was added to prepare the final concentration solution or suspension.
Intravenous injection formulations will be directly administered in animal experiments without filtration. The IV drug preparation vials were disinfected in an infrared sterilization cabinet one day in advance.
Intravenous injection: Administration was performed via the tail vein. After the needle was inserted, the syringe was slowly […].
Gavage: Gavage needle and syringe of an appropriate type were selected. The gavage needle was inserted from the root of the tongue into the esophagus until it reached near the cardia of the stomach, then the drug formulation was injected, and the gavage needle was withdrawn. When disposable plastic gavage needles were used, one needle was used for each group.
At each time point, 60 µL of whole blood was collected from the submandibular vein or tail vein (except for the IV group). The blood sample was added to a pre-cooled anticoagulant blood collection tube containing anticoagulant EDTA-K2 (1 µL, 15% EDTA-K2 solution), placed on wet ice, and centrifuged (3000 g, 4 °C, 10 min) within 1 h. The plasma was immediately collected after centrifugation, transferred to an EP tube, and stored at -90 °C to -60 °C.
Plasma concentration detection: A developed LC-MS/MS method was used to detect the compounds in plasma.
The plasma concentration-time data were analyzed using a non-compartmental model in the Phoenix® WinNonlin® (Version 8.2, Pharsight, Mountain View, CA).

NCI-H28 (NF2 wide-type) = assay: Inhibition of cell proliferation (CellTiter-Lumi); type: cell-based; details: Homo sapiens, 72 h + another 72 h treatment
Method: (§1) NCI-H2052 (NF2 mutant), NCI-H226 (NF2 mutant), NCI-H2452 (NF2 wide-type), NCI-H28 (NF2 wide-type), and MSTO-211H (NF2 wide-type) cells were cultured in RPMI 1640 complete media.
(§2) The normally growing cells described above were digested with a trypsin cell-digesting solution, centrifuged, counted, and then plated in a 96-well plate at a density of 1000 cells per well. Administration was performed 24 h after the cell plating. Inhibitors at different concentration gradients were added at 10 µL per well, and three replicate wells were set for each concentration point. The starting concentration was 20 µM and diluted 8 times with a 4-fold gradient. A corresponding negative control group treated with 0.1% DMSO was also set up. After 72 h of drug treatment, the cell culture plate to be tested was taken out of the incubator. The culture medium in the 96-well plate was pipetted, and 190 µL of fresh RPMI 1640 complete medium was added. Another administration was performed, and the cells were cultured for another 72 h. The 96-well plate was taken out and allowed to equilibrate at room temperature for 10 min. […] After shaking for two minutes, the mixture was reacted at room temperature for 10 min. Then, 150 µL of liquid was pipetted from the transparent 96-well plate and transferred to a white 96-well plate for chemiluminescence reading. The background value was subtracted from the value for each well to calculate the cell survival rate. Survival rate (%) = […]. Sample is the chemiluminescence of the drug-treated group, and Vehicle is the […] of the DMSO control group. A sigmoidal dose-survival rate curve was plotted using a non-linear regression model in the GraphPad Prism 7.0 software, and the IC50 values or GI50 values were calculated.

[3] = tested on: NCI-H2452 (NF2 wide-type); assay: Inhibition of cell proliferation (CellTiter-Lumi); type: cell-based; details: Homo sapiens, 72 h + another 72 h treatment
Method: as §1, §2

[4] = Saturated solubility in FaSSIF solution; type: physicochemical; details: room temperature, stirred overnight
Method: Efficacy Experimental Example 9: Test of Saturated Solubility of Samples in FaSSIF Solution
About 0.21 g of sodium hydroxide, about 2.24 g of sodium dihydrogen phosphate dihydrate, and 3.09 g of sodium chloride were weighed out and dissolved in 500 mL of water, and after dissolution, the pH was adjusted to 6.5 with 1 N sodium hydroxide or 1 N hydrochloric acid.
112 mg of FaSSIF solid was weighed out and placed in a 50 mL volumetric flask, and the buffer described above was added for dissolution. The resulting solution was diluted to volume, mixed well, and left to stand at room temperature for 2 h or more.
Test sample: About 1 mg of the test sample was taken, and 1 mL of FaSSIF solution was added. The mixture was stirred at room temperature overnight and centrifuged, and the supernatant was collected and injected for analysis.
Reference sample solution: About 1.5 mg of the test sample was precisely weighed out and placed in a 50 mL volumetric flask, and DMF was added for dissolution. The resulting solution was diluted to volume and mixed well.
The peak of the main component of the reference sample and the peak of the test sample with the same retention time were integrated, and the concentration thereof in the FaSSIF solution was calculated according to the external standard method.

in vivo = details: mouse, plasma, po, 200 mg/kg
Method: After adding 5% DMSO, the mixture was vortexed. 15% HS15 was then added, and the mixture was vortexed again. Finally, a 10% aqueous cyclodextrin solution was added, and the resulting mixture was vortexed to prepare the final concentration solution or suspension.

[5] = 293T reporter cells, 24 h of drug treatment, read-out: IC50

| Structure (SMILES) | IC50 (NCI-H28 (NF2 wide-type)) [nM] | IC50 [3] [nM] | IC50 [1, 5] [nM] | also measured |
| --- | --- | --- | --- | --- |
| Cn1cnc(-c2cc(P3(=O)CCOCC3)ccc2Nc2ccc(C(F)(F)F)cc2)c1 [Example 23] | – | – | – | IC50 ([1]; 24 h): 27.4 nM |
| CC(C)NC(=O)c1ccc2c(Oc3ccc(C(F)(F)F)cc3)cccc2c1 [Comparative compound B1, reference compound] | – | – | – | bioavailability [2]: 81%; AUC(0-t) ([2]; iv, 2 mg/kg): 1.24 µM·h; clearance ([2]; iv, 2 mg/kg): 70.8 mL/min/kg; half-life ([2]; iv, 2 mg/kg): 1.4 h; AUC(0-t) ([2]; po, 10 mg/kg): 4.87 µM·h; Cmax ([2]; po, 10 mg/kg): 653 nM; half-life ([2]; po, 10 mg/kg): 5.6 h |
| CP(C)(=O)c1cnc(Nc2ccc(S(F)(F)(F)(F)F)cc2)c(-c2cn3c(n2)CCC3)c1 [Example 37] | – | – | – | IC50 ([1]; 24 h): 5.93 nM |
| Cn1cnc(-c2cc(P(C)(C)=O)ccc2Nc2ccc3c(c2)OC(F)(F)O3)c1 [Example 30] | – | – | – | IC50 ([1]; 24 h): 23.7 nM |
| CNS(=O)(=O)c1cnc(Oc2ccc(C(F)(F)F)cc2)c(-c2cn3c(n2)CCC3)c1 [Comparative compound B4, reference compound] | – | – | – | FaSSIF(pH = 6.5) [4]: 36.2 ug/mL |
| CNS(=O)(=O)c1ccc(Nc2ccc(C(F)(F)F)cc2)c(-c2cn(C)cn2)c1 [Comparative compound B3, reference compound] | – | – | – | FaSSIF(pH = 6.5) [4]: 14.0 ug/mL; AUC(0-t) (in vivo): 1040 µM·h |

The next lines start with results.

| IC50 (NCI-H28 (NF2 wide-type)) [nM] | IC50 [3] [nM] | IC50 [1, 5] [nM] | Structure (SMILES) | also measured |
| --- | --- | --- | --- | --- |
| 958 | > 1250 | 11.8 | Cn1ccc(-c2cc(P(C)(C)=O)cnc2Nc2ccc(C(F)(F)F)cc2)n1 [Example 17] | – |
| > 1250 | > 1250 | 32.4 | CP(C)(=O)c1cnc(Nc2ccc3c(c2)OC(F)(F)O3)c(-c2cn3c(n2)CCC3)c1 [Example 39] | – |
| > 5000 | > 5000 | 191 | Cn1cnc(-c2cc(P(C)(C)=O)cnc2Nc2ccc3c(c2)OC(F)(F)O3)c1 [Example 34] | – |
| > 5000 | > 20000 | – | CP(C)(=O)c1ccc2c(Oc3ccc(OC(F)(F)F)cc3)cccc2c1 [Example 27] | – |
| > 20000 | > 50000 | 283 | CP(C)(=O)c1ccc2c(Oc3ccc(Cl)cc3)cccc2c1 [Example 28] | – |
